Assay results as given in ChEMBL document CHEMBL1909606, “Polarization in the structures of uracil and thiouracils: Implication for binding with orotidine 5'-monophosphate decarboxylase” (Bioorg Med Chem Lett, 2011).

Test: Binding affinity to orotidine-5'-monophosphate decarboxylase relative to uracil

Row | relative binding affinity (RBA) | SMILES
1 | 29 | O=c1cc[nH]c(=S)[nH]1
2 | 61 | Oc1nccc(S)n1
